The source made the active and inactive calls.
Legend:
[1] = mammalian cell viability loss – Alamar Blue, dry powder, cytotoxicity control for antifungal single agent project, dose response (AID 602188); format: functional, cell-based
[2] = NIH3T3 cell viability loss – ATP luminescence, mouse fibroblasts, counter-screen, dose response (AID 2010); format: functional, cell-based;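 note: cells exposed to compound for about 90 hours before reading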
[3] = NIH-3T3 fibroblast cytotoxicity, dose response, cytotoxicity control, cell-based, fluorescence, Alamar Blue, secondary assay (AID 2327); format: functional;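 note: NIH-3T3 mouse fibroblasts cultured with fluconazole at 8 µg/mL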
[4] = test system: Streptococcus; assay: GAS UMAA2166 growth inhibition – luminescence, BacTiterGlo, counter-screen for streptokinase expression inhibitor project, dose response (AID 1915); format: functional, organism-based;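 note: potency for reduction of bacterial viability or growth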
[5] = test system: Streptococcus sp. 'group A'; assay: Streptococcus pyogenes SK(-)GAS viability under kanamycin – luminescence, BacTiterGlo, confirmation, counter-screen for streptokinase expression inhibitor project, dose response (AID 1900); format: functional, organism-based
[6] = test system: HEK293; assay: EBV LMP1 TES2 canonical NF-kB signalling blockers – cell-based, HEK293, luciferase, cherry-pick, dose response (AID 588343); format: functional; conditions: Homo sapiens
[7] = biological target: T1, Serine/threonine-protein phosphatase (Candida dubliniensis (strain CD36 / CBS 7987 / NCPF 3949 / NRRLY-17841) (Yeast), UniProt B9W6M3); assay: blockers of CaCl2-induced CDRE-lacZ signaling – S. cerevisiae, luminescence, secondary, dose response (AID 2388); format: functional, cell-based;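 note: yeast reporter cells carrying a calcineurin-responsive lacZ construct stimulated with calcium chloride; luminescent beta-galactosidase reporter signal in whole cells rather than isolated phosphatase activity; potency for inhibition where a drop in reporter signal means calcineurin blockade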
T1 sequence (B9W6M3 whole entry): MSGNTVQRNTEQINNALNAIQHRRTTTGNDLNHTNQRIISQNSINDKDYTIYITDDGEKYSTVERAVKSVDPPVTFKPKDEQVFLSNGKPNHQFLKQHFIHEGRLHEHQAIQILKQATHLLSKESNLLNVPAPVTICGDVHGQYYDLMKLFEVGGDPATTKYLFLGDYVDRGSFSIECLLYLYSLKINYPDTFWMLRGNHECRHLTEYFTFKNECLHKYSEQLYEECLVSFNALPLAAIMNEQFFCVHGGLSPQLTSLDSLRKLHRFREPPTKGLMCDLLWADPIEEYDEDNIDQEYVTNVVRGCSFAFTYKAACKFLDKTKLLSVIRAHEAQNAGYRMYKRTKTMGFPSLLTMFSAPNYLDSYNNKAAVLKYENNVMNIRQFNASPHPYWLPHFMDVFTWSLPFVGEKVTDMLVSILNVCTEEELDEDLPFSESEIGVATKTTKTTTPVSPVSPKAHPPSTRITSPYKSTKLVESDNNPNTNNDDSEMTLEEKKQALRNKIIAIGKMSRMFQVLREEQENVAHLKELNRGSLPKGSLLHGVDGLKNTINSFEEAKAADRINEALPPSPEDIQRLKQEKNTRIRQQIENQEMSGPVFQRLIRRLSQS

[8] = fluconazole-exposed Candida albicans growth modulators – fluorescence, retest, confirmation (AID 2467); format: functional, cell-based
[9] = biological target: ATP-dependent molecular chaperone HSP82 (Candida albicans (strain WO-1) (Yeast), UniProt C4YTQ8); assay: steroid-induced GRE reporter decrease in yeast – S. cerevisiae, luminescence, Hsp90 inhibitor project, dose response (AID 2400); format: functional, cell-based;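 note: beta-galactosidase luminescence from glucocorticoid response element reporter as proxy for Hsp90 function; inhibitor potency where signal loss means Hsp90 inhibition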
ATP-dependent molecular chaperone HSP82, sequence (C4YTQ8 whole entry): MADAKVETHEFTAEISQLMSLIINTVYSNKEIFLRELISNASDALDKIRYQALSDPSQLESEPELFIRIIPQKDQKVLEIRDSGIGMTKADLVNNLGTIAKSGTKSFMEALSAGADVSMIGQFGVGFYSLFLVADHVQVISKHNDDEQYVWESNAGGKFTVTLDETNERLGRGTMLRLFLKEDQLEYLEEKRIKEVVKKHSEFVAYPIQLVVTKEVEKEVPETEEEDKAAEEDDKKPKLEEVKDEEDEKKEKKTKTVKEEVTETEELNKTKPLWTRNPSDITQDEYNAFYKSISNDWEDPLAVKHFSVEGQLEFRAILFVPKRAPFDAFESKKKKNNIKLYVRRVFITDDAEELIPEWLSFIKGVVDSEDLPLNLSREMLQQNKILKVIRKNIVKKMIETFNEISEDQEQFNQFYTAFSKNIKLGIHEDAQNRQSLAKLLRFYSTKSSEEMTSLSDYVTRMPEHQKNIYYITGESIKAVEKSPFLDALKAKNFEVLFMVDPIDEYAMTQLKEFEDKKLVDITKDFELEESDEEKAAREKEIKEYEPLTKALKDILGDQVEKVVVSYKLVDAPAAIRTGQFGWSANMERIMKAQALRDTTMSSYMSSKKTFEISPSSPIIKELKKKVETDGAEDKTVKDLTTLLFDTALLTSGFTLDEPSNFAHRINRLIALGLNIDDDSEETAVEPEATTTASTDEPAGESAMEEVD

[10] = Trypanosoma cruzi growth suppression in host cells – NIH3T3 host cells, beta-gal luminescence, confirmation (AID 2044); format: functional, cell-based;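 note: intracellular parasites grown in NIH/3T3 mouse fibroblasts as host cells; luminescent beta-galactosidase reporter signal from transgenic T. cruzi replicating inside host cells; inhibitors lower the luminescence signal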
[11] = biological target: T2, SUMO-activating enzyme (Homo sapiens, UniProt Q9UBT2); assay: blockers of SAE1/SAE2–UBC9 SUMO transfer – biochemical, HTRF, uHTS, primary screen (AID 2006); format: protein-complex assay
T2 sequence (Q9UBE0 whole entry): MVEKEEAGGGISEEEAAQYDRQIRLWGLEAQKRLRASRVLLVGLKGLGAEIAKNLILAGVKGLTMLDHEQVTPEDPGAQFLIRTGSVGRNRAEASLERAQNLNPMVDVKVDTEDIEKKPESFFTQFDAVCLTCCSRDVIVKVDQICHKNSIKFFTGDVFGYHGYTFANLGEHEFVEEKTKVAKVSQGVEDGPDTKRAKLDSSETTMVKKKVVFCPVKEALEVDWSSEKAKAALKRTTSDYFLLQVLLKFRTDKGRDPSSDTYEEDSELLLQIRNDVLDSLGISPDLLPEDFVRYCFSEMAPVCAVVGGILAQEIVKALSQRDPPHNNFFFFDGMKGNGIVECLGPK
T2 sequence (Q9UBT2 whole entry): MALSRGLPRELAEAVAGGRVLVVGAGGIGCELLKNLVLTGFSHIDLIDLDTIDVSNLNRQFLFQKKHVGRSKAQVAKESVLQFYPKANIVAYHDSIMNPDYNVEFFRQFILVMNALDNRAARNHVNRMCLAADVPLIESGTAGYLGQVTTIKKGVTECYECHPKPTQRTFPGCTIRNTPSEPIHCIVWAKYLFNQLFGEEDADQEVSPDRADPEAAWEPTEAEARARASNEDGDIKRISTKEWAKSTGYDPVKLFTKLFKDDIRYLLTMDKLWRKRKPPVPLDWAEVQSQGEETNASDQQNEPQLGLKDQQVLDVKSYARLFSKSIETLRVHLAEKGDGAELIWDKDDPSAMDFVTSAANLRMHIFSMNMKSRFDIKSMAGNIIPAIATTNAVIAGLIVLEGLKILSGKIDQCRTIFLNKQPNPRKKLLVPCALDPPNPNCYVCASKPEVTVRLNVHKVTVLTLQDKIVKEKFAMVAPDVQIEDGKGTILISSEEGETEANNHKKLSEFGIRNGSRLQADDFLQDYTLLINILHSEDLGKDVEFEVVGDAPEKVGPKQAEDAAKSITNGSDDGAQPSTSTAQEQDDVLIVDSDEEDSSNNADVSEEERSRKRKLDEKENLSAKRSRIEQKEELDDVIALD

[12] = viability of PTEN-deleted HCT116 cells – cell-based, HCT116 PTEN knockout, dose response (AID 1047); format: functional;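 note: HCT116 colon tumor cells with PTEN knocked out; cells exposed to compound for 60 hours before readout; potency for loss of cell viability measured by luminescence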
[13] = test system: INS1; assay: INS-1E survival protection against cytokine death – cell-based, luminescence, retest, dose response (AID 449756); format: functional; conditions: Rattus norvegicus;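 note: cell death triggered by IL-1 beta plus TNF-alpha plus IFN-gamma mixture; protective hits raise ATP signal compared with cytokine alone wells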
[14] = biological target: DNA damage-inducible transcript 3 protein (Mus musculus, UniProt P35639); format: functional, Cricetulus griseus
DNA damage-inducible transcript 3 protein, sequence (P35639 whole entry): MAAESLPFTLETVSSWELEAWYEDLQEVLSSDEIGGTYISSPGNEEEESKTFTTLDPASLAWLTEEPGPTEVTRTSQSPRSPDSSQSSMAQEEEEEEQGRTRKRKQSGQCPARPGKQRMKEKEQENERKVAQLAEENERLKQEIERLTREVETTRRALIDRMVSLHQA

[15] = biological target: T2, SUMO-activating enzyme; assay: blockers of UBC9-mediated SUMO conjugation – biochemical, AlphaScreen, SUMOylation inhibitor project, confirmation (AID 2018); format: functional
[16] = viability of HCT116 lacking mutant beta-catenin – cell-based, human colon tumor, dose response (AID 1045); format: functional;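 note: HCT116 colon tumor cells with beta catenin knocked out; cells exposed to compound for 60 hours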
[17] = biological target: Melanocortin receptor 4 (Homo sapiens, UniProt P32245); format: functional, cell-based;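 note: Cell-based assay with luminescence read-out, confirmatory dose-response testing for agonist activity of biased ligands at MC4R; human U2OS cells with tagged receptor and beta-arrestin; potency of agonists that increase receptor coupling to beta-arrestin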
Melanocortin receptor 4, sequence (P32245 whole entry): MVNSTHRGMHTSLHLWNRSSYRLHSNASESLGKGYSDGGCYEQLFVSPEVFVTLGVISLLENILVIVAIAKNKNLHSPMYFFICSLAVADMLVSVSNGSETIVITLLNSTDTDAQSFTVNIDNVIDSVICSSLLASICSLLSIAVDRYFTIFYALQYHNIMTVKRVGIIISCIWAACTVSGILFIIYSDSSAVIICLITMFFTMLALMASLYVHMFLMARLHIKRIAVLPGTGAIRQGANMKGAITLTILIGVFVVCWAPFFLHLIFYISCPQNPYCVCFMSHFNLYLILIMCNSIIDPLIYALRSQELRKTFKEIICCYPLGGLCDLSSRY

[18] = biological target: Induced myeloid leukemia cell differentiation protein Mcl-1 (Homo sapiens, UniProt Q07820); format: functional
Induced myeloid leukemia cell differentiation protein Mcl-1, sequence (Q07820 whole entry): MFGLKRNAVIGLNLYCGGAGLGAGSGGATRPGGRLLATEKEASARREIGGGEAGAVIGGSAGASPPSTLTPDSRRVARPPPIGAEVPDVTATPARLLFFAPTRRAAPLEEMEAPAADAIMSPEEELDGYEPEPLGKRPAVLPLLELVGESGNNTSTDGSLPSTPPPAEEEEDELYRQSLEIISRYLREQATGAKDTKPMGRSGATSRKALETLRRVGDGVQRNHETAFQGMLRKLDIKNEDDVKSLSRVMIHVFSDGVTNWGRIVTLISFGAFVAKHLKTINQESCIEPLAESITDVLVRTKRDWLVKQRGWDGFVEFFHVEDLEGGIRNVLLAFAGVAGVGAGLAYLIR

[19] = bead-based luminescence quenchers, dual-tagged ARNT – biochemical, AlphaScreen, cherry-pick, artefact control for ARNT-TACC3 interaction inhibitor project, dose response (AID 651705); format: functional;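 note: AlphaScreen bead proximity signal that flags compounds interfering with the detection technology; potency reflects signal decrease which marks the compound as an assay artifact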
[20] = biological target: Dual specificity protein phosphatase 3 (Homo sapiens, UniProt P51452); assay: VHR phosphatase inhibition, dose response, selectivity assay for STEP inhibitor project, biochemical (AID 602374); format: functional; conditions: read-out: IC50_Mean
Dual specificity protein phosphatase 3, sequence (P51452 whole entry): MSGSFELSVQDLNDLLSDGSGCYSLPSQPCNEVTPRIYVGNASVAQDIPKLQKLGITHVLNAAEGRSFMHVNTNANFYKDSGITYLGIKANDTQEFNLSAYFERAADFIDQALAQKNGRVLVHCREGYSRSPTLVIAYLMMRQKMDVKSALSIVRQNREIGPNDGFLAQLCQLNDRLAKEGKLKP

[21] = biological target: Tyrosine-protein phosphatase non-receptor type 5 (Homo sapiens, UniProt P54829); assay: PTPN5 enzyme inhibition – biochemical, fluorescence intensity, uHTS hits, confirmation (AID 602372); format: functional; conditions: read-out: IC50_Mean
Tyrosine-protein phosphatase non-receptor type 5, sequence (P54829 whole entry, the tested form may be a part): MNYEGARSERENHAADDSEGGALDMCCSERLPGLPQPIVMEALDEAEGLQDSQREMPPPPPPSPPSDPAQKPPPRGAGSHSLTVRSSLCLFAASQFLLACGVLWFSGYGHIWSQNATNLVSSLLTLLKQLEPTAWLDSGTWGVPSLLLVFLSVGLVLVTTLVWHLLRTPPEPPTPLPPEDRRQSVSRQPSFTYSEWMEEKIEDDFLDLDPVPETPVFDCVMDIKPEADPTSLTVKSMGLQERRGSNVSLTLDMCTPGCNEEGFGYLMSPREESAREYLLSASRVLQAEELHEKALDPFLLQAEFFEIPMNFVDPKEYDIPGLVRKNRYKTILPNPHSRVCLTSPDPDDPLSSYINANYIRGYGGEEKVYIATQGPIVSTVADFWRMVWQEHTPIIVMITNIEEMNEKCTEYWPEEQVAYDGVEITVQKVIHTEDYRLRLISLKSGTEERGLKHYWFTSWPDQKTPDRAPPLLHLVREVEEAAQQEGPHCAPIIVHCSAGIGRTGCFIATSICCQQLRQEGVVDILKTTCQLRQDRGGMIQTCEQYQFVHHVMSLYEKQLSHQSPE

[22] = biological target: T3, Carboxy-terminal domain RNA polymerase II polypeptide A small phosphatase 1 (Homo sapiens, UniProt Q9GZU7); assay: CTDSP1 inhibitors, concentration-response, biochemical, absorbance readout, ultra-high-throughput screen actives (AID 540297); format: functional
T3 sequence (Q9GZU7 whole entry): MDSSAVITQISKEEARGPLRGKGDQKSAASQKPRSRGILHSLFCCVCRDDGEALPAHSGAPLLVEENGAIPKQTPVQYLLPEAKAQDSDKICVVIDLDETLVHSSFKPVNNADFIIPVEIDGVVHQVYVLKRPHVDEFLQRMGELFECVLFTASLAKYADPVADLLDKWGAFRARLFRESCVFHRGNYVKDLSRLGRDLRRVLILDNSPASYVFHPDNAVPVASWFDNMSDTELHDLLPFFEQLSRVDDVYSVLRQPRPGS

[23] = biological target: Tyrosine-protein phosphatase non-receptor type 11 (Homo sapiens, UniProt Q06124); assay: PTPN11 enzyme inhibitors – biochemical, selectivity assay for STEP inhibitor project, dose response (AID 602367); format: functional; conditions: read-out: IC50_Mean
Tyrosine-protein phosphatase non-receptor type 11, sequence (Q06124 whole entry): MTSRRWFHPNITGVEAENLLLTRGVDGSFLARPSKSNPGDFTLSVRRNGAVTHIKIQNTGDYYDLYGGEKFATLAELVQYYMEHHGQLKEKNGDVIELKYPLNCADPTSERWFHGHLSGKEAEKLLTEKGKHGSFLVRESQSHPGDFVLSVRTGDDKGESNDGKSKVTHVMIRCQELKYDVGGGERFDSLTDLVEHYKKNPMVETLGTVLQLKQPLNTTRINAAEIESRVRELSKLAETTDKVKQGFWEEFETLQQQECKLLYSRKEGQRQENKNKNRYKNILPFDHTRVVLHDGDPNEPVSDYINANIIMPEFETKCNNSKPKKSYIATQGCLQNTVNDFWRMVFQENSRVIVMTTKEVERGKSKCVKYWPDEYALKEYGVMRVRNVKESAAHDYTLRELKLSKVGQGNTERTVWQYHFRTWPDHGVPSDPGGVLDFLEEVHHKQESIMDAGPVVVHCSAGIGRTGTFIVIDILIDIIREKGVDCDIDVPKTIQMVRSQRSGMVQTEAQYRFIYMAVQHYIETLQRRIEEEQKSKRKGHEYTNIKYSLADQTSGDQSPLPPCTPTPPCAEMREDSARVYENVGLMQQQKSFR

[24] = biological target: T4, Eukaryotic translation initiation factor 2-alpha kinase 3 (Homo sapiens, UniProt Q9NZJ5); assay: Counterscreen assay for PERK inhibitors: Dose response cell-based high throughput screening assay to measure inhibition of PERK at 6 hours. [Related pubchem assays: 1522, 1416 ]; format: functional
T4 sequence (Q9NZJ5 whole entry): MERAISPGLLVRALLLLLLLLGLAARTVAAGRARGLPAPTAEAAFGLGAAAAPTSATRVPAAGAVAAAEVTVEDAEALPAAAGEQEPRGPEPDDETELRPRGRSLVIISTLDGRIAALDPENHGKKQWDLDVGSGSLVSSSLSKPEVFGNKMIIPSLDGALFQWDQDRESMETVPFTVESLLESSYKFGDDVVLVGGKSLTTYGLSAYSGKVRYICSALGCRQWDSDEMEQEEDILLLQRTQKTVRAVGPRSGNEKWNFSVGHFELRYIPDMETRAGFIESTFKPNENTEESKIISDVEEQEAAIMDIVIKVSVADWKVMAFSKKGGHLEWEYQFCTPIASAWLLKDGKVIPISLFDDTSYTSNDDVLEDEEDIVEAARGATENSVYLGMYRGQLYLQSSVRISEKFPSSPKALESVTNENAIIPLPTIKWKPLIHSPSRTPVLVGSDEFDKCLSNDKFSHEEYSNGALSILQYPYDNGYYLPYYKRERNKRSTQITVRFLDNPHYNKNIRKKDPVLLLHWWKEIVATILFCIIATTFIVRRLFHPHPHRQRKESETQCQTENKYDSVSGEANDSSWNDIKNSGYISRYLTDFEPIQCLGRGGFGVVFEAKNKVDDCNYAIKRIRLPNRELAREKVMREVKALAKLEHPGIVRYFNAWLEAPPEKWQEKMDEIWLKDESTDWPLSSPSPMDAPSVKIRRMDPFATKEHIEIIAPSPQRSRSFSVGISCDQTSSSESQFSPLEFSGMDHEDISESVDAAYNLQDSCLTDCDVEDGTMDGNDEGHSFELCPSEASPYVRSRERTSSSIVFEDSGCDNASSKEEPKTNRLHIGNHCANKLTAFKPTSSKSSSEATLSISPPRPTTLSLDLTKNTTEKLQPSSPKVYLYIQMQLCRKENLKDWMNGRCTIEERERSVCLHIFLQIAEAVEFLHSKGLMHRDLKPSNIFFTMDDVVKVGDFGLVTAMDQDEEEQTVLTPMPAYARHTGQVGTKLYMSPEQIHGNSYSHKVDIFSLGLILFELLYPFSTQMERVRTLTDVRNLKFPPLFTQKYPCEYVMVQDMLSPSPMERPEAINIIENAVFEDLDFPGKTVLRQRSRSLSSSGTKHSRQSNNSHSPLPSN

[25] = biological target: T5, Apoptotic protease-activating factor 1 (Homo sapiens, UniProt O14727); assay: SAR analysis of small molecule Activators of Apaf-1 in a Fluorescent assay.; format: functional; conditions: read-out: EC50_Mean;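 note: caspase-3 cleavage of fluorogenic Rh110 DEVD substrate downstream of apoptosome activation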
T5 sequence (O14727 whole entry): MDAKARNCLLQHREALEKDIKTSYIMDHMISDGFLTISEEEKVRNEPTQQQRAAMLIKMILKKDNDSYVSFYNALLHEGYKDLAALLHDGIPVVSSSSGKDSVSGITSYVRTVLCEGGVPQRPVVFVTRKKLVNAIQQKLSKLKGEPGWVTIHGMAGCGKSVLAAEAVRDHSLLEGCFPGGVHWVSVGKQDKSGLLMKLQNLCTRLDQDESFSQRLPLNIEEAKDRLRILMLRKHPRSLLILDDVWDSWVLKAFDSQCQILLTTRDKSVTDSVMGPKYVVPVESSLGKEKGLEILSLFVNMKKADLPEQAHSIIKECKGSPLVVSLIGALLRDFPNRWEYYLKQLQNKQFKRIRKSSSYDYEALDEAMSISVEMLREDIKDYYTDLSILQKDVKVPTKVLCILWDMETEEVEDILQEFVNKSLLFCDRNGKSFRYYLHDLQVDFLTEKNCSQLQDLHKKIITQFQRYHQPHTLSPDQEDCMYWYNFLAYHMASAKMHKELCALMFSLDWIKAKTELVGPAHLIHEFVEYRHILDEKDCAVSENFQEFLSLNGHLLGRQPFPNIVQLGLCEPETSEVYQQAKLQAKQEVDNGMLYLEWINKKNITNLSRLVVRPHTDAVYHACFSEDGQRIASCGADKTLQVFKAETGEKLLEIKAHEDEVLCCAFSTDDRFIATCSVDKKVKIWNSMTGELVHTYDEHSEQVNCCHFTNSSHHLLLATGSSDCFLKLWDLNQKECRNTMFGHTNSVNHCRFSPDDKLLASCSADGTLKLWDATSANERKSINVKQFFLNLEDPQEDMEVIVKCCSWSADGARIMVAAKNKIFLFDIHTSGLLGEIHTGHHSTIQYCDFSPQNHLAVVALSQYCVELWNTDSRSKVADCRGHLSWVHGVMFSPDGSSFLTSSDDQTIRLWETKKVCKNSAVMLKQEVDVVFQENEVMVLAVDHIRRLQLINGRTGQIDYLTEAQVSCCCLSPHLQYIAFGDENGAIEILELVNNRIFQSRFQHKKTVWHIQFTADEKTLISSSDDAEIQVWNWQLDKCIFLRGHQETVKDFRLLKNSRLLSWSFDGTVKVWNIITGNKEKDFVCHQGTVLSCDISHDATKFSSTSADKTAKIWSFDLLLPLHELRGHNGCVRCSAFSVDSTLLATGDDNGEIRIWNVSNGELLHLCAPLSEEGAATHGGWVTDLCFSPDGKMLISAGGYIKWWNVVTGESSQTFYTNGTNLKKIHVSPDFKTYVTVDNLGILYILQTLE

[26] = biological target: T4, Eukaryotic translation initiation factor 2-alpha kinase 3; assay: Dose response cell-based high-throughput screening assay to measure PERK inhibition. [Related pubchem assays: 1416 ]; format: functional
[27] = biological target: Potassium voltage-gated channel subfamily KQT member 2 (Rattus norvegicus, UniProt O88943); assay: blockers of KCNQ2 channel current – cell-based, automated electrophysiology, set II, rat KCNQ2, dose response (AID 588637); format: functional
Potassium voltage-gated channel subfamily KQT member 2, sequence (O88943 whole entry): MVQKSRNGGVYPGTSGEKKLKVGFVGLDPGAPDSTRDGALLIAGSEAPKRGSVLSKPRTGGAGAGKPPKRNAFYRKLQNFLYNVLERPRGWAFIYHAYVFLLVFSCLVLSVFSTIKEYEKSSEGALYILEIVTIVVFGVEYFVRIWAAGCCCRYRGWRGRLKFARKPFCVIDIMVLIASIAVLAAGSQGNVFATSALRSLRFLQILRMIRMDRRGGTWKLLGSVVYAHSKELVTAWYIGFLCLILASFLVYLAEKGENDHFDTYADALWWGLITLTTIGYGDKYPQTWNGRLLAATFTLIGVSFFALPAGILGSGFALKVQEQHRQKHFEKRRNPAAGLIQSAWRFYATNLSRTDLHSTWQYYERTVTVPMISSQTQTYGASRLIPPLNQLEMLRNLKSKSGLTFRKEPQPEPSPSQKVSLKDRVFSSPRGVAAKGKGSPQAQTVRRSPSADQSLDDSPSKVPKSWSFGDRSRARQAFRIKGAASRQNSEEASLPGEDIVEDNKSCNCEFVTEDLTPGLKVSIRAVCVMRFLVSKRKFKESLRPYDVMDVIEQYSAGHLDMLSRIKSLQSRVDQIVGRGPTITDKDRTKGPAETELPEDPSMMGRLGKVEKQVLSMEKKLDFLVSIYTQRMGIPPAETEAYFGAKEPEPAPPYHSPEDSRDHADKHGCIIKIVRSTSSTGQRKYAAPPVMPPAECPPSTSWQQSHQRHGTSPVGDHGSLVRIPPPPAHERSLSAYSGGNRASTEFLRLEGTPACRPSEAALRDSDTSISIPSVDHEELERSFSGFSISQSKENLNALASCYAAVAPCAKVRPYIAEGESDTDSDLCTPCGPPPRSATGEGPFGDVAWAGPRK

SMILES: COc1ccc(-c2nnc(NC(=O)c3ccc(S(=O)(=O)N4CCCc5ccccc54)cc3)o2)cc1
- AC50 [1]: 2.71 µM (active)
- EC50 [2]: 5.82 µM (active)
- EC50 [3]: 32.9 µM (inconclusive)
- EC50 [4]: 0.855 µM (active)
- EC50 [5]: 0.186 µM (active)
- AC50 [6]: 3.47 µM (active)
- EC50 [7]: > 180 µM (inactive)
- EC50 [8]: 0.326 µM (active)
- EC50 [9]: > 150 µM (inactive)
- EC50 [10]: 0.795 µM (active)

SMILES: O=C(N=Nc1c(O)n(Cc2ccccc2)c2ccccc12)c1cc2ccccc2cc1O
- IC50 [11]: 13.8 µM (active)
- EC50 [12]: 4.96 µM (active)
- AC50 [13]: 7.06 µM (active)
- Absolute IC50 (CHOP) [14]: 10 µM
- IC50 [15]: 12.3 µM (active)
- EC50 [16]: 5.03 µM (active)
- EC50 [17]: > 89.2 µM (inactive)
- IC50 [18]: 5.39 µM (active)

SMILES: O=C(O)c1ccccc1-c1ccccc1C(=O)Nc1ccc2c(c1)nc(O)c1ccccc12
- AC50 [19]: 79.9 µM (active)

SMILES: CCN(c1ccccc1)S(=O)(=O)c1cc(C(=O)OCC(=O)c2c(N)n(C)c(=O)n(C)c2=O)ccc1C
- IC50 [20]: 2.62 µM (active)
- IC50 [21]: 30.9 µM (inactive)
- IC50 [22]: 3.71 µM (active)
- IC50 [23]: 1.13 µM (active)

SMILES: Cc1csc2c(=O)sc(NC(=O)c3ccc(F)cc3)nc12
- EC50 [24]: > 55.7 µM (not active)
- EC50 [25]: > 100 µM (inactive)
- EC50 [26]: > 55.7 µM (not active)

SMILES: Cc1ccccc1OCCn1cc(C(=O)C(=O)N2CCOCC2)c2ccccc21
- IC50 [27]: 8.84 µM (active)
